For assay [1], the system named is Rattus norvegicus. The experiment in a line: Inhibition of CP-55940-induced hypotension in po dosed rat. Type of assay: functional. The conditions noted are these: read-out: ID50 (the source's name).
The target in assay [2] is T1, Cannabinoid receptor 1 (Homo sapiens, UniProt P21554). In words: Antagonist activity at human cannabinoid CB1 receptor expressed in CHO cells assessed as inhibition of CP-55940-induced [3H]arachidonic acid release. Type of assay: functional, cell-based. The conditions noted are these: read-out: pA2 (converted).
T1 sequence (P21554 whole entry): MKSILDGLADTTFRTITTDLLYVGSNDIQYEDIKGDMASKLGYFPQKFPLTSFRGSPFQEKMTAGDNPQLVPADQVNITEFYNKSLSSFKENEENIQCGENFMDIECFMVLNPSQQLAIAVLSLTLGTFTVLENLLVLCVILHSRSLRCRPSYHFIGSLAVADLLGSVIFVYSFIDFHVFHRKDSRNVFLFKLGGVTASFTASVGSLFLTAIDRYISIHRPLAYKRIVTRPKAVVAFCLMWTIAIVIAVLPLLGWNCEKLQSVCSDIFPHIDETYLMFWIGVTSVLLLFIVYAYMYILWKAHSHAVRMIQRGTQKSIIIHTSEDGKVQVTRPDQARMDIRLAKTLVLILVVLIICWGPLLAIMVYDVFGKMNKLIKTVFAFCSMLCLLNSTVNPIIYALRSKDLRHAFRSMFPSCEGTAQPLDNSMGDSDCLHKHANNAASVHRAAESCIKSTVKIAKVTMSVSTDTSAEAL
In assay [3] the target is Cannabinoid receptor 2 (Homo sapiens, UniProt P34972). The experiment in a line: Displacement of [3H]CP-55940 from human cannabinoid CB2 receptor expressed in CHO cells. Type of assay: cell-based.
Chain of Cannabinoid receptor 2 (P34972 whole entry): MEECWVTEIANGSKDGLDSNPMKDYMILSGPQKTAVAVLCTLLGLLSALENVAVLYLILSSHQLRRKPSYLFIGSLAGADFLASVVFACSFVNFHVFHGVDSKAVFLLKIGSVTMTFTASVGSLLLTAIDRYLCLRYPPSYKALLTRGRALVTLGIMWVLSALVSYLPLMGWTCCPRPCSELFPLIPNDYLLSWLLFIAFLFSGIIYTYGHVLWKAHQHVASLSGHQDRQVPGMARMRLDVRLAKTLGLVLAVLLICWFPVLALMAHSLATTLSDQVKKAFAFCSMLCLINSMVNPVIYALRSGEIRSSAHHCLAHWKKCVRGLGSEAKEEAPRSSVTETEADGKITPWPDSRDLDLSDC
The target in assay [4] is T1, Cannabinoid receptor 1. In words: Displacement of [3H]CP-55940 from human cannabinoid CB1 receptor expressed in CHO cells. Type of assay: cell-based. On the technique in general: Displacement assays read how much labelled ligand stays bound in the presence of the test substance.

Consider `CNC(=NS(=O)(=O)N1CCC(C(F)(F)F)CC1)N1C[C@@H](c2ccccc2)C(c2ccc(Cl)cc2)=N1`, for which, in assay [1], the ED50 was greater than 30 mg/kg. The Kb in assay [2] is 0.0501 µM. For the same compound, the values for the Ki in assay [3] and in assay [4] were greater than 1 µM and 0.14 µM, respectively.
As for `CNC(=NS(=O)(=O)N1CCC(C(F)(F)F)CC1)C1=NN(c2ccc(Cl)cc2)[C@@H](c2ccccc2)C1`, the Ki (commonly the dissociation constant of the complex between target and ligand, obtained from inhibition or displacement) in assay [3] worked out at 0.584 µM; in assay [4], 0.002 µM.
Take `CN/C(=N\S(=O)(=O)N1CCC(F)(F)CC1)C1=NN(c2ccc(Cl)cc2)[C@H](c2ccccc2)C1`: in assay [1], the ED50 is greater than 30 mg/kg. In assay [2], the Kb is greater than 0.2 µM. In addition, the Ki in assay [3] was greater than 1 µM; in assay [4], 0.28 µM.
As for `CNC(=NS(=O)(=O)N1CCC(C(F)(F)F)CC1)C1=NN(c2ccc(Cl)cc2)[C@H](c2ccccc2)C1`, in assay [2], the Kb is 0.00631 µM. For the same compound, the Ki in assay [3] was greater than 1 µM; in assay [4], 0.058 µM.
In the case of `CN=C(NS(=O)(=O)N1CCC(F)(F)CC1)C1=NN(c2ccc(Cl)cc2)C(c2ccccc2)C1` (stereo not given), the ED50 in assay [1] came out at 9 mg/kg. The Kb in assay [2] is 0.000794 µM. Also, the Ki in assay [3] is greater than 1 µM; in assay [4] it was 0.0388 µM.
For `CNC(=NS(=O)(=O)N1CCCCC1)C1=NN(c2ccc(Cl)cc2)C(c2ccccc2)C1` (stereo not given) the same measures were greater than 30 mg/kg, 0.0126 µM, 1.09 µM and 0.141 µM.
Take `CN/C(=N\S(=O)(=O)N1CCC(F)CC1)C1=NN(c2ccc(Cl)cc2)C(c2ccccc2)C1` (stereo not given): in assay [1], the ED50 is greater than 30 mg/kg. For the same compound, the Kb in assay [2] is 0.00398 µM. Besides, the Ki in assay [3] is greater than 1 µM; in assay [4], 0.055 µM.
For `CN/C(=N\S(=O)(=O)c1cccc(Cl)c1)C1=NN(c2ccc(Cl)cc2Cl)C(c2ccccc2)C1` (stereo not given) the same measures were greater than 30 mg/kg, 0.00501 µM, 0.33 µM and 0.053 µM.
The matching figures for `CN/C(=N\S(=O)(=O)c1ccc(Cl)cc1)C1=NN(c2ccc(Cl)cc2Cl)C(c2ccccc2)C1` (stereo not given): greater than 30 mg/kg, 0.001 µM, 0.248 µM and 0.037 µM.
The matching figures for `CN/C(=N\S(=O)(=O)c1ccc(C(F)(F)F)cc1)C1=NN(c2ccc(Cl)cc2Cl)C(c2ccccc2)C1` (stereo not given): greater than 30 mg/kg, 0.00251 µM, 0.179 µM and 0.0113 µM.
`CN/C(=N\S(=O)(=O)N1CCC(F)(F)CC1)C1=NN(c2ccc(Cl)cc2)[C@@H](c2ccccc2)C1`: the ED50 in assay [1] is 5 mg/kg. In assay [2], the Kb is 0.00158 µM. Further, the Ki in assay [3] is greater than 1 µM; in assay [4], 0.0092 µM.
The matching figures for `CNC(=NS(=O)(=O)N1CCC(F)CC1)N1CC(c2ccccc2)C(c2ccc(Cl)cc2)=N1` (stereo not given): greater than 30 mg/kg, 0.001 µM, greater than 1 µM and 0.0075 µM.
`CN/C(=N\S(=O)(=O)c1ccc(Cl)cc1)C1=NN(c2ccc(Cl)cc2)C(c2ccccc2)C1` (stereo not given): the ED50 in assay [1] is greater than 30 mg/kg. Moreover, in assay [2], the Kb is 0.00398 µM. The Ki in assay [3] is greater than 1 µM; in assay [4], 0.084 µM.
With `CNC(=NS(=O)(=O)N1CCC(C(F)(F)F)CC1)N1C[C@H](c2ccccc2)C(c2ccc(Cl)cc2)=N1`, the ED50 in assay [1] is 2 mg/kg. Also, the Kb in assay [2] was 0.000251 µM. Besides, the figures for the Ki in assay [3] and in assay [4] were 0.305 µM and 0.0047 µM, respectively.
The matching figures for `CNC(=NS(=O)(=O)N1CCC(F)(F)CC1)N1C[C@@H](c2ccccc2)C(c2ccc(Cl)cc2)=N1`: greater than 30 mg/kg, 0.398 µM, greater than 1 µM and 0.463 µM.
The matching figures for `CN/C(=N\S(=O)(=O)c1ccc(F)cc1)C1=NN(c2ccc(Cl)cc2)C(c2ccccc2)C1` (stereo not given): 30 mg/kg, 0.01 µM, greater than 1 µM and 0.0217 µM.
As to `CN/C(=N\S(=O)(=O)N1CCC(C(F)(F)F)CC1)C1=NN(c2ccc(Cl)cc2)C(c2ccccc2)C1` (stereo not given), the Kb in assay [2] was 0.000398 µM. Besides, the Ki in assay [3] was found to be 0.606 µM; in assay [4], 0.0076 µM.
For the compound `CN/C(=N\S(=O)(=O)N1CCC(F)(F)CC1)N1CC(c2ccccc2)C(c2ccc(Cl)cc2)=N1` (stereo not given), the ED50 in assay [1] was 23 mg/kg.
Regarding `CNC(=NS(=O)(=O)N1CCC(F)(F)CC1)N1C[C@H](c2ccccc2)C(c2ccc(Cl)cc2)=N1`, the ED50 in assay [1] is 6 mg/kg. Besides, in assay [2], the Kb is 0.001 µM. Also, the inhibition constant Ki was greater than 1 µM in assay [3] and 0.042 µM in assay [4].
For the compound `CN/C(=N\S(=O)(=O)c1ccc(Cl)cc1)N1C[C@H](c2ccccc2)C(c2ccc(Cl)cc2)=N1` [IBIPINABANT], the ED50 in assay [1] was found to be 5.5 mg/kg.
For `CN/C(=N\S(=O)(=O)c1ccc(Cl)cc1)N1CC(c2ccccc2)C(c2ccc(Cl)cc2)=N1` (stereo not drawn) [RAC-IBIPINABANT], the ED50 in assay [1] was 15 mg/kg.
Regarding `CN/C(=N\S(=O)(=O)N1CCC(C(F)(F)F)CC1)N1CC(c2ccccc2)C(c2ccc(Cl)cc2)=N1` (stereo not given), in assay [2], the Kb was 0.000398 µM. For the same compound, the results for the Ki in assay [3] and in assay [4] were greater than 1 µM and 0.0145 µM, respectively.
Turning to `CN/C(=N\S(=O)(=O)N1CCCCC1)N1C[C@H](c2ccccc2)C(c2ccc(Cl)cc2)=N1`, the ED50 in assay [1] was determined as 8 mg/kg.

(Values after ChEMBL document CHEMBL1154936, “Synthesis, SAR and intramolecular hydrogen bonding pattern of 1,3,5-trisubstituted 4,5-dihydropyrazoles as potent cannabinoid CB(1) receptor antagonists” (Bioorg Med Chem Lett, 2010).)
